Reference: US20260207735A1, “Pharmaceutical compositions, vaccines and their uses in the prevention or treatment of a persistent infection or of cancer” (Universitätsmedizin der Johannes Gutenberg-Universität Mainz, priority 2018, published 2026)

Key:
[1] = tested on: CD8+ T cell response; conditions: following transcutaneous immunization with imiquimod in mice; cited from earlier work
[2] = tested on: influenza; conditions: combined with a vaccine, compared to the vaccine alone; cited from earlier work
[3] = tested on: CD11c positive Dendritic cells (DCs); assay: TLR7 mediated activation of splenic dendritic cells in vitro (CD40, CD80, CD86 by flow cytometry); assay type: cell-based, C57BL/6 mice; conditions: R-848 10 μg/ml, 24 h incubation; NAC 5 mM
Procedure: CD11c positive Dendritic cells (DCs) were purified from spleens from C57BL/6 mice) as described in Weber M et al. (2014) and activated as indicated with the TLR7/8 agonist R-848 (10 μg/ml), anthralin (dithranol), N-acetyl cysteine (NAC 5 mM) or left untreated in Iscoves's medium+5% FCS (Michael Weber et al., “Donor and Host B Cell-Derived IL-10 Contributes to Suppression of Graft-Versus-Host Disease.,” European Journal of Immunology 44, no. 6 (June 2014): 1857-65, doi:10.1002/eji.201344081).
After 24 h incubation, the cells were harvested, labeled with specific mAbs and analyzed by flow cytometry for the activation markers CD40, CD80 and CD86 gating on live (propidium iodide negative, CD11c/MHC class II positive DCs).
Spleens of C57BL6/J wildtype mice were harvested, picked and digested for 45 min with type 2 collagenase (50 U/ml from Worcester, Pappenheim, Germany) and stopped by adding 2 mM EDTA (from Sigma-Aldrich, Taufkirchen, Germany). After a hypotonic lysis step DCs were isolated using CD11c MicroBeads UltraPure (Miltenyi Biotec, Germany) following the manufacturer's instruction. 2×10^5 CD11c^+ DCs/well were plated in 96 well plates and cultivated for either 24 or 48 h in the presence of TLR7 ligand R-848 (10 μg/ml) and/or different concentrations of anthralin (solved in DMSO). […] Following cytokines were quantified using CBA technology: IL-1b; IL-6; IL-10; IL-12; IL-23; TNF-α.

[4] = tested on: peptide-specific CD8+ T cells; assay: Imiquimod based transcutaneous immunization (TCI), primary T cell response (tetramer flow cytometry, in vivo cytolytic activity, IFN-γ ELISpot); design: species or system C57BL/6 mice; conditions: for T cell activation (primary T cell response): 0.0625% in Vaseline on ear skin 24 h before TCI (IMI-Sol + OVA peptides), read-out day 7
[5] = tested on: peptide-specific CD8+ T cells; assay: Imiquimod based TCI, memory immune response (secondary T cell response), Day 35; assay type: in vivo, C57BL/6 mice; conditions: dithranol 0.0625% in Vaseline 24 h before TCI; read-out Day 35
Procedure: C57BL/6 mice (n=3-8 per group) were immunized by TCI, performed as described in FIG. 1 (A) The frequency of peptide-specific CD8^+ T cells was assessed on Day 35 via flow cytometry. (B) The in vivo cytolytic activity was analyzed on Day 35, 20 h after transfer of peptide-loaded splenocytes. (C) IFN-γ production of splenocytes on Day 35 post the indicated treatments. Splenocytes were re-stimulated with the indicated peptides for 24 h before harvest and analysis by ELISpot assay. * Significance by One Way ANOVA with Bonferroni Posttest analysis; p<0.05 (*). […]
For detecting in vivo cytolytic activity, splenocytes of syngenic wildtype mice were labeled with different amounts of 5,6-carboxyfluorescein diacetate succinimidyl ester (CFSE; Invitrogen, Carlsbad, USA) resulting in a CFSE^low and a CFSE^high population. […] Specific lysis was evaluated as following: Specific lysis (%)=100×(1−([…]). All analyses were performed with a LSRII Flow Cytometer and FACSDiva Software (Becton Dickinson, Franklin Lakes, USA). […]

[6] = α-Tocopherol 600 U/kg i.p. 1 h before anthralin and/or TCI, day 7

Oc1cc2ccccc2c2ccccc12 [9-phenanthrol]
generation of a CD8+ T cell response [1]: enhances the generation of a CD8+ T cell response

CC(C)Cn1cnc2c(N)nc3ccccc3c21 [Imiquimod, imiquimod]
survival of mice [2]: improve survival of mice

CC(=O)N[C@@H](CS)C(=O)O [NAC, N-acetyl cysteine]
TLR7 mediated activation of DCs (CD40, CD80, CD86) [3]: activation phenotype is restored

O=C1c2cccc(O)c2C(=O)c2c(O)cccc21 [danthron]
T cell activation (primary T cell response) [4]: no impact on T cell activation

O=C1c2c(O)cccc2Cc2cccc(O)c21 [dithranol, 1,8-dihydroxy-9-anthrone]
TLR7 mediated activation of DCs (CD40, CD80, CD86) [3]: suppresses the TLR7 mediated activation of DCs in vitro
T cell activation including memory T cell formation (secondary T cell response) [5]: synergistic effect on T cell activation on CD8 positive as well as CD4 positive T cells including memory T cell formation
T cell activation (primary T cell response) [4]: synergistic effect on T cell activation on CD8 positive as well as CD4 positive T cells
site dependence of synergistic T cell activation ([4]; TCI on both ears or only one ear, day 7): required at the same site (ear) to mediate synergistic T cell activation

Cc1c(C)c2c(c(C)c1O)CC[C@@](C)(CCC[C@H](C)CCC[C@H](C)CCCC(C)C)O2 [α-Tocopherol]
CTL frequency (peptide-specific CD8+ T cells) [4, 6]: without affecting CTL frequency
in vivo cytolytic activity induced by dithranol (anthralin) TCI [4, 6]: antagonizes the enhanced cytolytic activity induced by dithranol (anthralin) TCI
